US20260216141A1, “NECROSIS INHIBITOR” (LINKGEVITY LIMITED, priority 2023, published 2026)

Test system: C. elegans
Test: C. elegans movement analysis post stress
Assay type: in vivo, Caenorhabditis elegans
Settings: EGTA 2500 μM in liposomes 3 hrs prior stress; cold, heat, oxidative and toxin stress
Source text: Movement was scored according to an adapted methodology (from Herndon et al., 2002). Briefly, animals were marked as either: normal movement; or defective movement. Defective movement was defined as worms that are stationary unless touched with a pick, in which case they may only move a few […] forward before stopping again or they may not move at all. 100 animals were used per trial and the percentage of worms with defective movement was scored.
According to the protocol in Shibamura et al., 2009, drug was dissolved in MilliQ water and encapsulated in liposomes. Drug used was EGTA, at a final concentration of 2500 μM. Briefly, L-a-phosphatidylcholine (LαPC) was used to prepare liposomes by first dissolving LαPC in distilled water at the concentration of 96 mg/ml. A ×2 concentration of drug solution was mixed with LαPC to a 1:1 ratio and heated to 65° C. Drug-LαPC solution was then converted into liposomes using a mini-Avanti extruder a 100 nm pore size polycarbonate membrane. MilliQ water encapsulated in liposomes was used a as the empty vector control. Following preparation, 25 μl of the liposome drug solution was spread onto a 25 μl spot OP50 lawn on NGM plates and worms were then picked onto the plates.
The percentage of animals with this defective movement were scored post stress.

O=C(O)CN(CCOCCOCCN(CC(=O)O)CC(=O)O)CC(=O)O [EGTA, ethylene glycol-bis(β-aminoethyl ether)-N,N,N′,N′-tetraacetic acid]
movement defects post stress: reduced movement defects
